Assay results from ChEMBL document CHEMBL2424636, “Synthesis and anticancer activity evaluation of new 1,2,3-triazole-4-carboxamide derivatives” (2013).

Legend:
Type in all cases: functional
[1] = tested on: SK-MEL-5; test: Cytotoxicity against human SK-MEL-5 cells assessed as cell growth at 10^-5 M after 48 hrs by SRB assay; conditions: SK-MEL-5, 48 h, read-out: Activity
[2] = tested on: T47D; test: Cytotoxicity against human T47D cells assessed as cell growth at 10^-5 M after 48 hrs by SRB assay; conditions: read-out: Activity
[3] = tested on: RPMI-8226; test: Cytotoxicity against human RPMI8226 cells assessed as cell growth at 10^-5 M after 48 hrs by SRB assay; conditions: RPMI-8226, 48 h, read-out: Activity
[4] = Cytotoxicity against human EKVX cells assessed as cell growth at 10^-5 M after 48 hrs by SRB assay; conditions: read-out: Activity
[5] = tested on: A549; test: Cytotoxicity against human A549/ATCC cells assessed as cell growth at 10^-5 M after 48 hrs by SRB assay; conditions: A549, 48 h, read-out: Activity
[6] = tested on: CAKI-1; test: Cytotoxicity against human Caki1 cells assessed as cell growth at 10^-5 M after 48 hrs by SRB assay; conditions: CAKI-1, 48 h, read-out: Activity
[7] = tested on: NCI-H522; test: Cytotoxicity against human NCI-H522 cells assessed as cell growth at 10^-5 M after 48 hrs by SRB assay; conditions: NCI-H522, 48 h, read-out: Activity
[8] = tested on: A498; test: Cytotoxicity against human A498 cells assessed as cell growth at 10^-5 M after 48 hrs by SRB assay; conditions: A498, 48 h, read-out: Activity
[9] = tested on: SR; test: Cytotoxicity against human SR cells assessed as cell growth at 10^-5 M after 48 hrs by SRB assay; conditions: read-out: Activity
[10] = tested on: MOLT-4; test: Cytotoxicity against human MOLT4 cells assessed as cell growth at 10^-5 M after 48 hrs by SRB assay; conditions: MOLT-4, 48 h, read-out: Activity
[11] = tested on: SK-OV-3; test: Cytotoxicity against human SKOV3 cells after 48 hrs by SRB assay; conditions: SK-OV-3, 48 h
[12] = tested on: TK-10; test: Cytotoxicity against human TK10 cells after 48 hrs by SRB assay; conditions: TK-10, 48 h
[13] = tested on: SNB-75; test: Cytotoxicity against human SNB75 cells after 48 hrs by SRB assay; conditions: SNB-75, 48 h
[14] = tested on: RXF 393; test: Cytotoxicity against human RXF393 cells after 48 hrs by SRB assay; conditions: RXF 393, 48 h
[15] = tested on: U-251; test: Cytotoxicity against human U251 cells after 48 hrs by SRB assay; conditions: U-251, 48 h
[16] = tested on: MDA-MB-231; test: Cytotoxicity against human MDA-MB-231/ATCC cells after 48 hrs by SRB assay; conditions: MDA-MB-231, 48 h
[17] = tested on: SF-539; test: Cytotoxicity against human SF539 cells assessed as cell growth at 10^-5 M after 48 hrs by SRB assay; conditions: SF-539, 48 h, read-out: Activity
[18] = tested on: SNB-75; test: Cytotoxicity against human SNB75 cells assessed as cell growth at 10^-5 M after 48 hrs by SRB assay; conditions: SNB-75, 48 h, read-out: Activity
[19] = tested on: 786-0; test: Cytotoxicity against human 786-0 cells assessed as cell growth at 10^-5 M after 48 hrs by SRB assay; conditions: 786-0, 48 h, read-out: Activity
[20] = tested on: U-251; test: Cytotoxicity against human U251 cells assessed as cell growth at 10^-5 M after 48 hrs by SRB assay; conditions: U-251, 48 h, read-out: Activity
[21] = tested on: SF-539; test: Cytotoxicity against human SF539 cells after 48 hrs by SRB assay; conditions: SF-539, 48 h
[22] = tested on: Malme-3M; test: Cytotoxicity against human MALME-3M cells after 48 hrs by SRB assay
[23] = tested on: MDA-MB-468; test: Cytotoxicity against human MDA-MB-468 cells assessed as cell growth at 10^-5 M after 48 hrs by SRB assay; conditions: MDA-MB-468, 48 h, read-out: Activity
[24] = tested on: K562; test: Cytotoxicity against human K562 cells assessed as cell growth at 10^-5 M after 48 hrs by SRB assay; conditions: K562, 48 h, read-out: Activity
[25] = tested on: UO-31; test: Cytotoxicity against human UO31 cells assessed as cell growth at 10^-5 M after 48 hrs by SRB assay; conditions: UO-31, 48 h, read-out: Activity
[26] = tested on: UACC-62; test: Cytotoxicity against human UACC62 cells assessed as cell growth at 10^-5 M after 48 hrs by SRB assay; conditions: UACC-62, 48 h, read-out: Activity
[27] = tested on: HOP-92; test: Cytotoxicity against human HOP92 cells assessed as cell growth at 10^-5 M after 48 hrs by SRB assay; conditions: HOP-92, 48 h, read-out: Activity
[28] = tested on: HOP-62; test: Cytotoxicity against human HOP62 cells assessed as cell growth at 10^-5 M after 48 hrs by SRB assay; conditions: HOP-62, 48 h, read-out: Activity
[29] = tested on: PC-3; test: Cytotoxicity against human PC3 cells assessed as cell growth at 10^-5 M after 48 hrs by SRB assay; conditions: PC-3, 48 h, read-out: Activity
[30] = tested on: MCF7; test: Cytotoxicity against human MCF7 cells assessed as cell growth at 10^-5 M after 48 hrs by SRB assay; conditions: MCF7, 48 h, read-out: Activity

Question: For `Cc1ccccc1-n1nnc(C(=O)Nc2ccc(Cl)cc2Cl)c1N`, which growth at 10 µM [1] is on record?
Answer: Its growth at 10 µM is 55.9%.

Question: What about the growth at 10 µM [2] of the same compound?
Answer: The growth at 10 µM was 60.9%.

Question: What about the growth at 10 µM [3] of the same compound?
Answer: Its growth at 10 µM is 59.6%.

Question: And the growth at 10 µM [4]?
Answer: The growth at 10 µM was 56.7%.

Question: Which growth at 10 µM [5] does the source give for `Cc1c(C(=O)Nc2ncc(Cc3ccccc3)s2)nnn1-c1ccccc1` here?
Answer: Its growth at 10 µM is 80.3%.

Question: What about the growth at 10 µM [6] of the same compound?
Answer: Its growth at 10 µM is 80%.

Question: For `Nc1c(C(=O)NC2CCCC2)nnn1-c1cccc(C(F)(F)F)c1`, which growth at 10 µM [7] is on record?
Answer: The growth at 10 µM was 87%.

Question: What about the growth at 10 µM [8] of the same compound?
Answer: Its growth at 10 µM is 89.1%.

Question: Which growth at 10 µM [9] does the source give for `Cc1ccc(-n2nnc(C(=O)NCc3ccccc3)c2N)cc1` here?
Answer: The growth at 10 µM was 68.2%.

Question: And the growth at 10 µM [10]?
Answer: The growth at 10 µM was 75.8%.

Question: Which GI50 [11] does the source give for `COc1ccc(NC(=O)c2nnn(-c3ccc(F)cc3)c2N)c(OC)c1` here?
Answer: The GI50 was 13.8 µM.

Question: And the TGI ([11]; read-out: pTGI)?
Answer: Its TGI is greater than 100 µM.

Question: What about the GI50 [12] of the same compound?
Answer: Its GI50 is 30.2 µM.

Question: What about the TGI ([12]; read-out: pTGI) of the same compound?
Answer: The TGI was greater than 100 µM.

Question: And the GI50 [13]?
Answer: Its GI50 is 3.89 µM.

Question: What about the TGI ([13]; read-out: pTGI (converted)) of the same compound?
Answer: Its TGI is greater than 100 µM.

Question: And the GI50 [14]?
Answer: The GI50 was 37.2 µM.

Question: What about the TGI ([14]; read-out: pTGI (converted)) of the same compound?
Answer: The TGI was greater than 100 µM.

Question: And the GI50 [15]?
Answer: The GI50 was 11.7 µM.

Question: And the TGI ([15]; read-out: pTGI)?
Answer: The TGI was greater than 100 µM.

Question: And the growth at 10 µM [2]?
Answer: The growth at 10 µM was -2.61%.

Question: What about the GI50 [16] of the same compound?
Answer: The GI50 was 6.46 µM.

Question: And the TGI ([16]; read-out: pTGI)?
Answer: The TGI was greater than 100 µM.

Question: And the growth at 10 µM [17]?
Answer: The growth at 10 µM was -4.64%.

Question: And the growth at 10 µM [18]?
Answer: Its growth at 10 µM is -27.3%.

Question: And the growth at 10 µM [19]?
Answer: Its growth at 10 µM is -1.64%.

Question: And the growth at 10 µM [20]?
Answer: Its growth at 10 µM is -9.89%.

Question: What about the GI50 [21] of the same compound?
Answer: Its GI50 is 17.8 µM.

Question: What about the TGI ([21]; read-out: pTGI) of the same compound?
Answer: Its TGI is greater than 100 µM.

Question: And the GI50 [22]?
Answer: The GI50 was 12.9 µM.

Question: What about the TGI ([22]; read-out: pTGI) of the same compound?
Answer: The TGI was greater than 100 µM.

Question: Which results are given for `CCc1ccc(NC(=O)c2nnn(-c3ccc(OC)cc3)c2N)cc1`?
Answer: growth at 10 µM [1]: 56.3%; growth at 10 µM [3]: 60.9%; growth at 10 µM [23]: 62.6%

Question: Which growth at 10 µM [24] does the source give for `Cc1c(C(=O)Nc2cccc(C(F)(F)F)c2)nnn1-c1ccc2noc(-c3ccccc3)c2c1` here?
Answer: Its growth at 10 µM is 89.8%.

Question: And the growth at 10 µM [25]?
Answer: The growth at 10 µM was 78.5%.

Question: What does the source list for `Cc1c(C(=O)NCc2ccco2)nnn1-c1ccc2noc(-c3ccc(Cl)cc3)c2c1`?
Answer: growth at 10 µM [26]: 64.2%; growth at 10 µM [3]: 65.3%; growth at 10 µM [25]: 52%; growth at 10 µM [8]: 56.2%; growth at 10 µM [23]: 68%

Question: Which results are given for `CCc1c(C(=O)Nc2ccccc2Cl)nnn1-c1ccc2noc(-c3ccccc3)c2c1`?
Answer: growth at 10 µM [27]: 58.4%; growth at 10 µM [3]: 76.2%; growth at 10 µM [28]: 74.2%; growth at 10 µM [29]: 60.6%

Question: With `CCc1c(C(=O)Nc2ccc(Cl)cc2)nnn1-c1ccc2noc(-c3ccccc3)c2c1` as the compound, how does the growth at 10 µM [7] read?
Answer: Its growth at 10 µM is 88.9%.

Question: What about the growth at 10 µM [9] of the same compound?
Answer: Its growth at 10 µM is 85.1%.

Question: And the growth at 10 µM [26]?
Answer: Its growth at 10 µM is 83.6%.

Question: And the growth at 10 µM [25]?
Answer: Its growth at 10 µM is 67.8%.

Question: What does the source list for `Nc1c(C(=O)Nc2ccc(F)cc2)nnn1-c1cccc(C(F)(F)F)c1`?
Answer: growth at 10 µM [30]: 82.5%; growth at 10 µM [3]: 81.4%; growth at 10 µM [8]: 81.7%
